Source: paper PMC3530535, “Crystal Structure of Proteus mirabilis Lipase, a Novel Lipase from the Proteus/Psychrophilic Subfamily of Lipase Family I.1” (PLoS ONE, 2012)

Biological target: T1, Proteus mirabilis lipase (PML) (Proteus mirabilis, UniProt B4EVM3)
T1 construct: gene PMI0999; N-terminal hexahistidine tag (pET28a, plasmid pTK05), expressed in E. coli BL21Gold(DE3), Ni-NTA purified, tag removal not described
Assay: X-ray crystal structure, […] A
Assay type: binding
Details: covalent; diethyl adduct on Ser79 O-gamma; treated with 2 mM paraoxon, 0.6% Triton X100, 18 h, 25 °C, pH 7.5

T1 sequence (B4EVM3 entry or part of it): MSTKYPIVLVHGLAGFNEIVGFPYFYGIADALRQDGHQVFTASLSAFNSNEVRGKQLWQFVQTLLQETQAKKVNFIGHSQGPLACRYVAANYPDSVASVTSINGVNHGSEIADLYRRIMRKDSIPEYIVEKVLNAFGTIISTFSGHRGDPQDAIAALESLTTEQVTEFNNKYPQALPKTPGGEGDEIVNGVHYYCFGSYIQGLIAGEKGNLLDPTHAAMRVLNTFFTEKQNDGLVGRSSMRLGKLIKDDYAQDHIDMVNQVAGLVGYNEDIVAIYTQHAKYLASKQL

Structure (SMILES): CCOP(=O)(OCC)Oc1ccc([N+](=O)[O-])cc1 [DEP, paraoxon]
- X-ray crystal structure, 2.2 A: the small phosphonate inhibitor is covalently bound to the Oγ of S79
